Converted amounts (≈) assume the structure as drawn. Counter-ions that a name gives are not always drawn. Like-named read-outs stand apart in the source and are kept apart here.
What was measured:
Type in all cases: cell-based
E. coli NIHJ = assay: Antibacterial activity (MIC, agar plate, standard method of the Japanese Chemotherapeutic Society); details: 10^4 cells/plate, 37° C., 20 hours
Description: (§1) According to the standard method of the Japanese Chemotherapeutic Society [Chemotherapy, Vol. 23, Pages 1-2 (1975)], a culture obtained by cultivating bacteria in Heart Infusion broth (manufactured by Eken Kagakusha) at 37° C. for 20 hours was inoculated into a Heart Infusion agar medium (manufactured by Eiken Kagakusha) and cultivated at 37° C. for 20 hours, after which the growth of bacteria was examined visually. The minimum inhibitory concentration at which the bacterial growth was inhibited was taken as MIC (μg/ml). The amount of the inoculated bacteria was 10^4 cells/plate (10^6 cells/ml).

Klebsiella spp Y-72 = assay: Antibacterial activity (MIC, agar plate); details: Klebsiella spp Y-72, 10^4 cells/plate, 37° C., 20 hours
Description: as §1

[1] = system: Pro. vulgaris GN76 (Cephalosporinase-producing bacteria); assay: Antibacterial activity (MIC, agar plate)
Description: as §1

Kl. pneumoniae Y-50 = assay: Antibacterial activity (MIC, agar plate); details: 37° C., 20 hours
Description: as §1

Ent. cloacae IID977 = assay: Antibacterial activity (MIC, agar plate); details: 10^4 cells/plate, 37° C., 20 hours
Description: as §1

Ser. marcescens IID620 = assay: Antibacterial activity (MIC, agar plate)
Description: as §1

Al. faecalis B-1 = assay: Antibacterial activity (MIC, agar plate)
Description: as §1

Pro. mirabilis T-100 = assay: Antibacterial activity (MIC, agar plate); details: 37° C., 20 hours
Description: as §1

[2] = system: E. coli TK3 (Penicillinase-producing bacteria); assay: Antibacterial activity (MIC, agar plate)
Description: as §1

Pro. mirabilis T-111 = assay: Antibacterial activity (MIC, agar plate)
Description: as §1

Aci. calcoaceticus A-6 = assay: Antibacterial activity (MIC, agar plate); details: 37° C., 20 hours
Description: as §1

Pro. morganii T-216 = assay: Antibacterial activity (MIC, agar plate)
Description: as §1

Kl. pneumoniae Y-41 = assay: Antibacterial activity (MIC, agar plate)
Description: as §1

[3] = E. coli TK3 (penicillinase-producing), 10^4 cells/plate, 37° C., 20 hours
[4] = Pro. mirabilis T-111, 10^4 cells/plate, 37° C., 20 hours
[5] = Kl. pneumoniae Y-41, 10^4 cells/plate, 37° C., 20 hours
[6] = Escherichia coli, read-out: MIC
[7] = Klebsiella pneumoniae, Y50, 10^4 cells/plate, read-out: MIC
[8] = Enterobacter cloacae, read-out: MIC
[9] = Serratia marcescens, IID620, 20 h
[10] = Alcaligenes faecalis, B1, Al. faecalis B-1, 10^4 cells/plate, 37° C., 20 hours, read-out: MIC
[11] = Proteus mirabilis, T100, 10^4 cells/plate, read-out: MIC
[12] = Acinetobacter calcoaceticus, A6, 10^4 cells/plate, read-out: MIC
[13] = Morganella morganii, T216, 20 h
[14] = Klebsiella pneumoniae, Y41, Kl. pneumoniae Y-41, 10^4 cells/plate, 37° C., 20 hours, read-out: MIC
[15] = Proteus vulgaris, Pro. vulgaris GN76 (cephalosporinase-producing), 10^4 cells/plate, 37° C., 20 hours, read-out: MIC
[16] = Serratia marcescens, Ser. marcescens IID620, 10^4 cells/plate, 37° C., 20 hours, read-out: MIC
[17] = Morganella morganii, T216, Pro. morganii T-216, 10^4 cells/plate, 37° C., 20 hours, read-out: MIC
[18] = Proteus mirabilis, T111, Pro. mirabilis T-111, 10^4 cells/plate, 37° C., 20 hours, read-out: MIC
[19] = Klebsiella pneumoniae, Y41, 20 h

| Structure (SMILES) | MIC (E. coli NIHJ; [6]) [mg/L] | MIC (Kl. pneumoniae Y-50; [7]) [mg/L] | MIC (Ent. cloacae IID977; [8]) [mg/L] | MIC (Al. faecalis B-1; [10]) [mg/L] | MIC (Pro. mirabilis T-100; [11]) [mg/L] | MIC ([2]; Escherichia coli, 20 h) [mg/L] | MIC (Pro. mirabilis T-111; Proteus mirabilis, T111, 20 h) [mg/L] | MIC (Aci. calcoaceticus A-6; [12]) [mg/L] | MIC (Pro. morganii T-216; [13]) [mg/L] | MIC (Kl. pneumoniae Y-41; [14]) [mg/L] | MIC [1, 15] [mg/L] | other results |
| --- | --- | --- | --- | --- | --- | --- | --- | --- | --- | --- | --- | --- |
| CO/N=C(\C(=O)NC1C(=O)N2C(C(=O)O)=C(Cn3cnc(NC(C)=O)n3)CS[C@H]12)c1csc(N)n1.O=C(O)C(F)(F)F (stereo partly drawn) [A, Trifluoroacetic acid salt of 7-[2-(2-aminothiazol-4-yl)-2-(syn)-methoxyiminoacetamido]-3-[(3-acetamido-1,2,4-triazolyl)methyl]-Δ^3-cephem-4-carboxylic acid] |  |  |  |  |  |  |  |  |  |  |  | MIC (E. coli NIHJ): ≤ 0.1 mg/L; MIC (Klebsiella spp Y-72): 6.25 mg/L; MIC ([1]; Pro. vulgaris GN76 (cephalosporinase-producing), 10^4 cells/plate, 37° C., 20 hours): 3.13 mg/L; MIC (Kl. pneumoniae Y-50; 10^4 cells/plate): ≤ 0.1 mg/L; MIC (Ent. cloacae IID977): 6.25 mg/L; MIC (Ser. marcescens IID620; Ser. marcescens IID620, 10^4 cells/plate, 37° C., 20 hours): 0.78 mg/L; MIC (Al. faecalis B-1; Al. faecalis B-1, 10^4 cells/plate, 37° C., 20 hours): 50 mg/L; MIC (Pro. mirabilis T-100; 10^4 cells/plate): ≤ 0.1 mg/L; MIC [2, 3]: 0.39 mg/L; MIC (Pro. mirabilis T-111; [4]): 0.2 mg/L; MIC (Aci. calcoaceticus A-6; 10^4 cells/plate): 25 mg/L; MIC (Pro. morganii T-216; Pro. morganii T-216, 10^4 cells/plate, 37° C., 20 hours): 0.2 mg/L; MIC (Kl. pneumoniae Y-41; [5]): 0.2 mg/L |
| CO/N=C(\C(=O)NC1C(=O)N2C(C(=O)O)=C(CNC(=O)c3ccco3)CSC12)c1csc(N)n1 (stereo not drawn) [B, Trifluoroacetic acid salt of 7-[2-(2-aminothiazol-4-yl)-2-(syn)-methoxyiminoacetamido]-3-(furan-2-yl-carboxamido)methyl-Δ^3-cephem-4-carboxylic acid] | ≤ 0.1 | ≤ 0.1 | 25 | 12.5 | ≤ 0.1 | 0.39 | 0.2 | 25 | 0.39 | 0.2 |  | MIC (Klebsiella spp Y-72; Y72, read-out: MIC): 1.56 mg/L; MIC ([1]; Proteus vulgaris, GN76, 20 h): 0.78 mg/L; MIC (Ser. marcescens IID620; [9]): 0.2 mg/L |
| CO/N=C(\C(=O)NC1C(=O)N2C(C(=O)O)=C(CNC(C)=O)CSC12)c1csc(N)n1 (stereo not drawn) [C, Trifluoroacetic acid salt of 7-[2-(2-aminothiazol-4-yl)-2-(syn)-methoxyiminoacetamido]-3-acetamidomethyl-Δ^3-cephem-4-carboxylic acid] | ≤ 0.1 | ≤ 0.1 | 50 | 12.5 | ≤ 0.1 | 0.39 | 0.39 | 12.5 |  | 0.2 | 6.25 | MIC (Klebsiella spp Y-72; Y72, read-out: MIC): 6.25 mg/L; MIC (Ser. marcescens IID620; [16]): 1.56 mg/L; MIC (Pro. morganii T-216; [17]): 0.78 mg/L |
| Cc1nnc(SCC2=C(C(=O)O)N3C(=O)[C@@H](NC(=O)Cn4cnnn4)[C@H]3SC2)s1 [Cephazoline, reference compound] | 1.56 (≈ 3.43 µM) | 1.56 (≈ 3.43 µM) | > 200 | 100 (≈ 220 µM) |  |  |  | 200 (≈ 440 µM) |  | 3.13 (≈ 6.89 µM) | > 200 | MIC (Klebsiella spp Y-72; Y72, read-out: MIC): > 200 mg/L; MIC (Ser. marcescens IID620; [16]): > 200 mg/L; MIC ([2]; Escherichia coli, E. coli TK3 (penicillinase-producing), 10^4 cells/plate, 37° C., 20 hours, read-out: MIC): 25 mg/L (≈ 55 µM); MIC (Pro. mirabilis T-111; [18]): 6.25 mg/L (≈ 13.8 µM); MIC (Pro. morganii T-216; [17]): > 200 mg/L |
| CO/N=C(\C(=O)NC1C(=O)N2C(C(=O)O)=C(Cn3ncnn3)CSC12)c1csc(N)n1 (stereo not drawn) [F, Trifluoroacetic acid salt of 7-[2-(2-aminothiazol-4-yl)-2-(syn)-methoxyiminoacetamido]-3-[2-(1,2,3,4-tetrazolyl)methyl]-Δ^3-cephem-4-carboxylic acid] | ≤ 0.1 | ≤ 0.1 | 12.5 |  |  | ≤ 0.1 | ≤ 0.1 | 6.25 | ≤ 0.1 | ≤ 0.1 | 0.78 | MIC (Ser. marcescens IID620; [9]): 0.39 mg/L; MIC (Al. faecalis B-1; Alcaligenes faecalis, B1, 20 h): 3.13 mg/L |
| CO/N=C(\C(=O)NC1C(=O)N2C(C(=O)O)=C(Cn3cnnn3)CSC12)c1csc(N)n1 (stereo not drawn) [G, Trifluoroacetic acid salt of 7-[2-(2-aminothiazol-4-yl)-2-(syn)-methoxyiminoacetamido]-3-[1-(1,2,3,4-tetrazolyl)methyl]-Δ^3-cephem-4-carboxylic acid] | ≤ 0.1 | ≤ 0.1 | 6.25 | 12.5 |  | 0.39 | 0.2 | 25 | 0.2 | 0.2 |  | MIC ([1]; Proteus vulgaris, GN76, 20 h): 0.78 mg/L; MIC (Ser. marcescens IID620; [16]): 1.56 mg/L |
| CO/N=C(\C(=O)NC1C(=O)N2C(C(=O)O)=C(Cn3nnc(N)n3)CSC12)c1csc(N)n1 (stereo not drawn) [H, Trifluoroacetic acid salt of 7-[2-(2-aminothiazol-4-yl)-2-(syn)-methoxyiminoacetamido]-3-[2-(5-amino-1,2,3,4-tetrazolyl)methyl]-Δ^3-cephem-4-carboxylic acid] | ≤ 0.1 | 0.2 | 12.5 | 12.5 |  | 0.78 | 0.39 | 25 | 0.78 | 0.39 | 1.56 | MIC (Ser. marcescens IID620; [9]): 0.78 mg/L |
| CO/N=C(\C(=O)NC1C(=O)N2C(C(=O)O)=C(Cn3nnc(NC(C)=O)n3)CSC12)c1csc(N)n1 (stereo not drawn) [I, Trifluoroacetic acid salt of 7-[2-(2-aminothiazol-4-yl)-2-(syn)-methoxyiminoacetamido]-3-[2-(5-acetamido-1,2,3,4-tetrazolyl)methyl]-Δ^3-cephem-4-carboxylic acid] | ≤ 0.1 | ≤ 0.1 |  |  | ≤ 0.1 | 0.39 | ≤ 0.1 |  |  |  |  | MIC (Kl. pneumoniae Y-41; [19]): 0.2 mg/L |
| CO/N=C(\C(=O)NC1C(=O)N2C(C(=O)O)=C(Cn3nnc(C)n3)CSC12)c1csc(N)n1 (stereo not drawn) [J, Trifluoroacetic acid salt of 7-[2-(2-aminothiazol-4-yl)-2-(syn)-methoxyiminoacetamido]-3-[2-(5-methyl-1,2,3,4-tetrazolyl)methyl]-Δ^3-cephem-4-carboxylic acid] | ≤ 0.1 | ≤ 0.1 |  |  | ≤ 0.1 | 0.39 |  |  |  |  |  | MIC (Pro. mirabilis T-111; [18]): 0.2 mg/L; MIC (Kl. pneumoniae Y-41; [19]): ≤ 0.39 mg/L |
| CCc1nnn(CC2=C(C(=O)O)N3C(=O)C(NC(=O)/C(=N\OC)c4csc(N)n4)C3SC2)n1 (stereo not drawn) [K, Trifluoroacetic acid salt of 7-[2-(2-aminothiazol-4-yl)-2-(syn)-methoxyiminoacetamido]-3-[2-(5-ethyl-1,2,3,4-tetrazolyl)methyl]-Δ^3-cephem-4-carboxylic acid] | ≤ 0.1 | 0.2 |  |  | ≤ 0.1 | 0.39 | 0.78 |  |  | 0.78 |  |  |
| CO/N=C(\C(=O)NC1C(=O)N2C(C(=O)O)=C(Cn3cnc(Cl)n3)CS[C@H]12)c1csc(N)n1.O=C(O)C(F)(F)F (stereo partly drawn) [L, Trifluoroacetic acid salt of 7-[2-(2-aminothiazol-4-yl)-2-(syn)-methoxyiminoacetamido]-3-[(3-chloro-1,2,4-triazolyl)methyl]-Δ^3-cephem-4-carboxylic acid] |  |  |  |  |  |  |  |  |  |  |  | MIC (E. coli NIHJ): ≤ 0.1 mg/L; MIC (Kl. pneumoniae Y-50; 10^4 cells/plate): ≤ 0.1 mg/L; MIC (Pro. mirabilis T-100; 10^4 cells/plate): ≤ 0.1 mg/L; MIC [2, 3]: 0.39 mg/L; MIC (Pro. mirabilis T-111; [4]): 0.78 mg/L; MIC (Kl. pneumoniae Y-41; [5]): 0.39 mg/L |
| CC(=O)Nc1nnn(CC2=C(C(=O)O)N3C(=O)C(NC(=O)Cc4csc(N)n4)C3SC2)n1 (stereo not drawn) [M, Trifluoroacetic acid salt of 7-[2-(2-aminothiazol-4-yl)acetamido]-3-[2-(5-acetamido-1,2,3,4-tetrazolyl)methyl]-Δ^3-cephem-4-carboxylic acid] | 0.39 | 0.78 |  |  | 0.39 | 1.56 | 0.78 |  |  | 0.78 |  |  |
| Nc1nc(CC(=O)NC2C(=O)N3C(C(=O)O)=C(Cn4ncnn4)CSC23)cs1 (stereo not drawn) [N, Trifluoroacetic acid salt of 7-[2-(2-aminothiazol-4-yl)acetamido]-3-[2-(1,2,3,4-tetrazolyl)methyl]-Δ^3-cephem-4-carboxylic acid] | 0.39 | 0.39 |  |  | 0.39 | 1.56 | 0.78 |  |  | 0.78 |  |  |
